Source: publication PMC12027149 (International Journal of Molecular Sciences, 2025)
Where “and” joins values, the source holds several entries; their conditions need not be identical. Equal entries are not always repeated.

Legend:
[1] = MTT cytotoxicity assay on differentiated SH-SY5Y cells; format: cell-based, human; conditions: human, differentiated SH-SY5Y, 0.05–5 mM, MTT reduction assay, Hill fit, read-out: LC50
Experimental: (§1) The SH–SY5Y cell line (DSMZ code: ACC 209) was supplied by the German Collection of Microorganisms and the Cell Culture GmbH (DSMZ) biobank and was cultured according to the supplier’s information. Cells were grown in DMEM:F12 (Dulbecco’s Modified Eagle’s Medium/F12), supplemented with 10% fetal bovine serum (FBS) and 1% antibiotic–antimycotic in a humidified atmosphere with 5% CO2 at 37 °C. Subculture was performed according to biobank instructions when the cultures reached 80–85% of confluence.
(§2) SH-SY5Y cells were trypsinized (trypsin/EDTA; 0.25%) and the cell suspension was seeded in 96-well plates at a density of 2 × 10^4 cells/well and incubated until reaching 80-85% confluence. Cells were differentiated to obtain a dopaminergic neuronal phenotype according to Ferreira et al. with slight modifications (Figure 10). To ensure reproducibility and optimal neuronal differentiation, cells were used between passages (15–25). Briefly, cells were seeded in complete DMEM:F12 medium containing 10 µM retinoic acid (RA) and 2.5% fetal bovine serum (FBS) and maintained for 4 days, with the medium changed on day 2. After this time, the medium was replaced by DMEM:F12 supplemented with 10 µM RA, 80 nM 12-O-tetradecanoylphorbol-13-acetate (TPA), and 2.5% FBS, and the cells were maintained for an additional 4 days (with the medium changed at day 6). The cytotoxicity assay was performed on day 8.
(§3) The SH-SY5Y cells’ viability was evaluated after exposure for 24 h to […]. The 3-(4,5-dimethylthiazol-2-yl) − 2,5-diphenyltetrazolium bromide (MTT) colorimetric assay was performed following the methodology described by Joana Silva et al.. The experimental dose–response results were fitted to the Hill’s sigmoidal non-linear regression model. For each cathinone, the LC50 values (cathinone concentration showing 50% lethality) and their confidence interval at the 95% confidence level ([CI]) were determined. The Hill slope, also known as the Hill coefficient, which describes the steepness of a dose–response curve, and the minimum observable adverse effect concentration (LOAEL) were also determined for all cathinones.

[2] = test system: differentiated SH-SY5Y cells; test: as above; format: cell-based, human; conditions: lowest observed adverse effect level, differentiated SH-SY5Y, 24 h, MTT
Experimental: as §1, §2, §3

[3] = target: T1, Acetylcholinesterase (AChE, EC 3.1.1.7) (Electrophorus electricus, UniProt O42275); test: Acetylcholinesterase inhibition, modified Ellman colorimetric method; format: biochemical; conditions: for Hillslope: AChE inhibition dose–response curve; for LOAEL: AChE inhibition; for LOAEL / IC50: Ellman assay; for IC50: IC50, AChE inhibition, 0.03–2 mM, Hill fit
T1 construct: purchased Sigma-Aldrich
Experimental: Acetylcholinesterase (AChE, EC 3.1.1.7) enzymatic activity was assessed using a modified version of Ellman’s colorimetric method, as described by Falé et al.. In this assay, a mixture of 325 μL of 50 mM Tris-HCl buffer (pH 8), 100 μL of a cathinone solution, and 25 μL of AChE (0.1 U/mL in 50 mM Tris–HCl buffer pH 8) were incubated. After a 15 min incubation period, 75 μL of AChI (0.33 mg/mL) was added to 475 μL of DTNB (dithiobis (2-nitrobenzoic acid)) (1.2 mg/mL in Tris–HCl buffer (pH 8) containing 0.1 M NaCl and 0.02 M MgCl2). A control reaction, representing 100% activity, was performed using the same volume of water instead of the cathinone solution. The initial velocity of the enzymatic reaction was measured at 405 nm for 5 min, with all assays carried out in duplicate. The percentage of AChE activity inhibition for different concentrations of cathinones [0.03–2 mM] was determined as the ratio of the initial velocity in the cathinone presence to the initial velocity of the control reaction. Experimental results were fitted to Hill’s sigmoidal dose–response non-linear regression model to determine IC50 values (cathinone concentration showing 50% inhibition), along with their confidence interval at the 95% confidence level ([CI]). The Hill slope coefficients that provide the steepest value of the slope of the dose–response curve and the minimum observable adverse effect concentration (LOAEL) for all cathinones were also determined.

SH-SY5Y cells [4] = test: Intracellular reactive oxygen species levels (H2-DCFDA probe); format: cell-based, human; conditions: 6 h treatment at LC50
Experimental: Reactive oxygen species (ROS) production was determined by evaluating ROS levels after exposure to cathinones at concentrations corresponding to their LC50 for 6 h. SH-SY5Y cells were washed with 1× PBS and incubated with 100 µL of 2′,7′-dichlorodihydrofluorescein diacetate (H2-DCFDA) (20 µM) in medium without FBS, for 60 min at 37 °C in the dark. Subsequently, the cells were washed with 1× PBS (1×), and the cells were maintained for 30 min at room temperature in 100 µL of PBS. After this time, ROS levels were determined by measuring fluorescence (excitation wavelength (λ): 495 nm; emission λ: 527 nm). Ascorbic acid (A.A) (100 µg/mL) served as the negative control and, hydrogen peroxide (H2O2) (200 µM) was used as the positive control. Results were expressed as a percentage relative to the control. All data were derived from at least three independent experiments (n = 3) and presented as mean ± standard error of the mean (SEM).

SH-SY5Y cells [5] = test: Mitochondrial membrane potential (JC-1 probe); format: cell-based, human; conditions: 6 h treatment at LC50, JC-1
Experimental: Mitochondrial membrane potential (MMP) was estimated by using the JC-1 fluorescent probe (Molecular Probes, Eugene, OR, USA) as described in Silva et al., 2022 [65]. The formation of JC-1 aggregates (excitation λ: 490 nm; emission λ: 590 nm) and monomers (excitation λ: 490 nm; emission λ: 530 nm) was measured for 30 min using a plate reader (Bio-Tek Synergy plate reader, Bedfordshire, UK). Changes in MMP were calculated as the ratio between JC-1 monomers and aggregates and expressed as a percentage of the control. An FCCP (2.5 µM) and oligomycin A (1 mg/mL) conjugate solution was used as the positive control. All data were obtained from at least three independent experiments (n = 3) and were presented as mean ± standard error of the mean (SEM).

T1 sequence (O42275 24-633): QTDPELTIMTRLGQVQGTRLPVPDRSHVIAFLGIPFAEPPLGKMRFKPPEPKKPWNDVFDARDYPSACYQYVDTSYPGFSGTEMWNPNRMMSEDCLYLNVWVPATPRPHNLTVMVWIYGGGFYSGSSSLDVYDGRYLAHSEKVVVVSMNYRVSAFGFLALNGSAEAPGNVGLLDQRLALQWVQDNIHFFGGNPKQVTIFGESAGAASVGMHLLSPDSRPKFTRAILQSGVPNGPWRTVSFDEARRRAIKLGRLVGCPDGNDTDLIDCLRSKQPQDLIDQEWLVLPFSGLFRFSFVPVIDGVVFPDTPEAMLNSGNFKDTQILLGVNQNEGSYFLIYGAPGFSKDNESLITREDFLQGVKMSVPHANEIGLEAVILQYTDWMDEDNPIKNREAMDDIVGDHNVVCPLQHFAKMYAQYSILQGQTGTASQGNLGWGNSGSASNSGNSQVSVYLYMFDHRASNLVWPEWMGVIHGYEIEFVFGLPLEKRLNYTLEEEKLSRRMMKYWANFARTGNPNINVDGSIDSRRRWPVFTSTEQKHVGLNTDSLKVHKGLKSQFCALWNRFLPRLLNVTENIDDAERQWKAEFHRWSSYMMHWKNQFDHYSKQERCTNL

CC(NC(C)(C)C)C(=O)c1ccc(Cl)cc1 (racemic) [4-Cl-TBC (20), (R,S)-2-(tert-butylamino)-1-(4-chlorophenyl)propan-1-one]
CC50 at 24 h [1]: 1.3 mM | LOAEL [2]: 0.5 mM | Hillslope [3]: 2.7 | LOAEL [3]: 0.500 mM | IC50 [3]: ~2 mM | inhibition at 2000 µM ([3]; highest tested concentration of 2 mM): 48% | increase in ROS production compared to the vehicle (SH-SY5Y cells [4]): 30%

CCN(CC)C(C)C(=O)c1cccc(Cl)c1 (racemic) [3-Cl-DEC (15), (R,S)-1-(3-chlorophenyl)-2-(diethylamino)propan-1-one]
MMP depolarization (SH-SY5Y cells [5]): more pronounced MMP depolarization than the other cathinones | CC50 at 24 h [1]: 1.2 mM | LOAEL [2]: 1 mM and 1.0 mM | maximum inhibition of AChE among the tested concentrations ([3]; 0.03 to 2 mM): 87% | Hillslope [3]: 0.9 | LOAEL [3]: 0.063 mM | IC50 [3]: 0.3 mM | significant increase in ROS production compared to vehicle (SH-SY5Y cells [4]): exception
